# Test results reported in the NIST ThermoML archive (doi:10.1016/j.jct.2008.01.014).
# Numbers after ± are expanded uncertainties.
# Conditions: Liquid, Ebulliometric method (Recirculating still)
Structure (SMILES),vapor or sublimation pressure (273.15 K),vapor or sublimation pressure (288.15 K),vapor or sublimation pressure (303.15 K),vapor or sublimation pressure (318.15 K),vapor or sublimation pressure (333.15 K),vapor or sublimation pressure (348.15 K)
"CC(F)(F)F [1,1,1-trifluoroethane]",626 ± 3 kPa,972 ± 4 kPa,1442 ± 6 kPa,2063 ± 9 kPa,2875 ± 12 kPa,
C=C(C)C [2-methylpropene],133 ± 2 kPa,224 ± 2 kPa,353 ± 2 kPa,538 ± 3 kPa,787 ± 4 kPa,1110 ± 5 kPa
